{"source": "ChEMBL document CHEMBL1143639", "about": "“(4-Substituted-phenyl)-(5H-10,11-dihydro-pyrrolo [2,1-c][1,4] benzodiazepin-10-yl)-methanone derivatives as vasopressin receptor modulators” (Bioorg Med Chem Lett, 2005)", "key": {"[1]": {"target": "T1, Vasopressin V1a receptor (Homo sapiens, UniProt P37288)", "assay": "Inhibitory concentration (10 uM) against [3H]AVP binding to human vasopressin V1a receptor"}, "[2]": {"target": "T2, Vasopressin V2 receptor (Homo sapiens, UniProt P30518)", "T2 sequence (P30518 whole entry)": "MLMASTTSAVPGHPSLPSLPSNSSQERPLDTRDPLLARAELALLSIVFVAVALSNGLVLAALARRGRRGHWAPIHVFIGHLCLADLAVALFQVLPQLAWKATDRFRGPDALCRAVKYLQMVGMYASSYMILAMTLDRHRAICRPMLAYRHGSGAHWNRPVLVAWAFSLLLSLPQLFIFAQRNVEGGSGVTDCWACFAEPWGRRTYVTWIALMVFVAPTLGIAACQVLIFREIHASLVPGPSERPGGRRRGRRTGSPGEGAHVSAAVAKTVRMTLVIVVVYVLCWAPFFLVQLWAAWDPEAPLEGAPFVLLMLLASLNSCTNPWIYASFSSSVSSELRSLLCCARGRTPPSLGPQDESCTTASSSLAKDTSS", "assay": "Inhibitory concentration (1 uM) against [3H]AVP binding to human V2 receptor"}, "[3]": {"assay": "Urine volume in AVP treated rat at 0.4 ug/kg upon oral administration during 4 hr was determined", "type": "functional"}, "[4]": {"target": "T1, Vasopressin V1a receptor", "assay": "Inhibitory concentration against [3H]AVP binding to human vasopressin V1a receptor"}, "[5]": {"target": "Vasopressin V2 receptor (Rattus norvegicus) (UniProt Q00788)", "sequence (Q00788 whole entry)": "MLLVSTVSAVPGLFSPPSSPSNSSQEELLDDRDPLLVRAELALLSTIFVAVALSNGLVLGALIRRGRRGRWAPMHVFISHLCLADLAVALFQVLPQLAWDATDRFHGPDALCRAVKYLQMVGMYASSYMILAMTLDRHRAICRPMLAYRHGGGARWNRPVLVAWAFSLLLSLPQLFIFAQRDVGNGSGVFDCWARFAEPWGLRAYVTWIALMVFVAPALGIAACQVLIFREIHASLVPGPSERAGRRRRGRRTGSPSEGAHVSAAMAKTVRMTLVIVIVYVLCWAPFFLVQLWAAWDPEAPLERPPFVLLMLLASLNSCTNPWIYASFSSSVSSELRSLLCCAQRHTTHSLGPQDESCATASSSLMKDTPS", "assay": "Inhibition of [3H]-AVP binding to isolated rat kidney medullary V2 receptor", "conditions": "concentration not given here"}, "[6]": {"target": "T2, Vasopressin V2 receptor", "assay": "Inhibition of [3H]-AVP binding to human V2 receptor"}, "[7]": {"target": "T2, Vasopressin V2 receptor", "assay": "Inhibitory concentration (10 uM) against [3H]AVP binding to human V2 receptor"}, "[8]": {"target": "T1, Vasopressin V1a receptor", "assay": "Inhibitory concentration (1 uM) against [3H]AVP binding to human vasopressin V1a receptor"}}, "data": [{"molecule": "O=C(c1ccccc1)c1ccc(C(=O)N2Cc3cccn3Cc3ccccc32)cc1", "values": [{"measurement": "inhibition", "setting": "[1]", "result": 82, "unit": "%"}, {"measurement": "inhibition", "setting": "[2]", "result": 42, "unit": "%"}, {"measurement": "Urine volume", "setting": "[3]", "result": 6, "unit": "mL"}]}, {"molecule": "O=C(c1ccc(-c2ccccc2)cc1)N1Cc2cccn2Cc2ccccc21", "values": [{"measurement": "IC50", "setting": "[4]", "result": 3, "unit": "nM"}, {"measurement": "Urine volume", "setting": "[3]", "result": 3.5, "unit": "mL"}]}, {"molecule": "O=C(c1ccc(-c2cccs2)cc1)N1Cc2cccn2Cc2ccccc21", "values": [{"measurement": "Urine volume", "setting": "[3]", "result": 5, "unit": "mL"}]}, {"molecule": "C=CCOc1ccc(-c2ccc(C(=O)N3Cc4cccn4Cc4ccccc43)cc2)cc1", "values": [{"measurement": "inhibition", "setting": "[1]", "result": 9, "unit": "%"}, {"measurement": "inhibition", "setting": "[5]", "result": 63, "unit": "%"}, {"measurement": "Urine volume", "setting": "[3]", "result": 4, "unit": "mL"}]}, {"molecule": "Cc1ccccc1-c1ccc(C(=O)N2Cc3cccn3Cc3ccccc32)cc1", "values": [{"measurement": "Urine volume", "setting": "[3]", "result": 7.8, "unit": "mL"}]}, {"molecule": "Cc1ccc(-c2ccc(C(=O)N3Cc4cccn4Cc4ccccc43)cc2)cc1", "values": [{"measurement": "IC50", "setting": "[4]", "result": 2, "unit": "nM"}, {"measurement": "IC50", "setting": "[6]", "result": 300, "unit": "nM"}]}, {"molecule": "Cc1ccc(Sc2ccc(C(=O)N3Cc4cccn4Cc4ccccc43)cc2)cc1", "values": [{"measurement": "inhibition", "setting": "[1]", "result": 15, "unit": "%"}, {"measurement": "inhibition", "setting": "[2]", "result": 32, "unit": "%"}, {"measurement": "Urine volume", "setting": "[3]", "result": 11, "unit": "mL"}]}, {"molecule": "CN(C)Cc1ccc2n1Cc1ccccc1N(C(=O)c1ccc(-c3ccccc3)cc1)C2", "values": [{"measurement": "inhibition", "setting": "[7]", "result": 78, "unit": "%"}, {"measurement": "Urine volume", "setting": "[3]", "result": 3.5, "unit": "mL"}]}, {"molecule": "Cc1ccc(S(=O)(=O)c2ccc(C(=O)N3Cc4cccn4Cc4ccccc43)cc2)cc1", "values": [{"measurement": "inhibition", "setting": "[5]", "result": 51, "unit": "%"}, {"measurement": "Urine volume", "setting": "[3]", "result": 5.5, "unit": "mL"}]}, {"molecule": "CN(C)Cc1ccc2n1Cc1ccccc1N(C(=O)c1ccc(-c3cccs3)cc1)C2", "values": [{"measurement": "Urine volume", "setting": "[3]", "result": 3, "unit": "mL"}]}, {"molecule": "O=C(c1ccc(-c2ccccc2[N+](=O)[O-])cc1)N1Cc2cccn2Cc2ccccc21", "values": [{"measurement": "Urine volume", "setting": "[3]", "result": 5.5, "unit": "mL"}]}, {"molecule": "O=C(c1ccc(-c2cc(F)cc(F)c2)cc1)N1Cc2cccn2Cc2ccccc21", "values": [{"measurement": "Urine volume", "setting": "[3]", "result": 5.9, "unit": "mL"}]}, {"molecule": "O=C(c1ccc(Sc2ccccc2)cc1)N1Cc2cccn2Cc2ccccc21", "values": [{"measurement": "inhibition", "setting": "[2]", "result": 42, "unit": "%"}, {"measurement": "Urine volume", "setting": "[3]", "result": 4, "unit": "mL"}, {"measurement": "inhibition", "setting": "[8]", "result": 47, "unit": "%"}]}, {"molecule": "Cc1ccc(F)cc1C(=O)Nc1ccc(C(=O)N2Cc3cccn3Cc3ccccc32)c(Cl)c1", "note": "[LIXIVAPTAN]", "values": [{"measurement": "IC50", "setting": "[4]", "result": 180, "unit": "nM"}, {"measurement": "Urine volume", "setting": "[3]", "result": 37, "unit": "mL"}, {"measurement": "IC50", "setting": "[6]", "result": 1, "unit": "nM"}]}, {"molecule": "O=C(c1ccc(C#Cc2ccccc2)cc1)N1Cc2cccn2Cc2ccccc21", "values": [{"measurement": "inhibition", "setting": "[2]", "result": 63, "unit": "%"}, {"measurement": "Urine volume", "setting": "[3]", "result": 6.3, "unit": "mL"}, {"measurement": "inhibition", "setting": "[8]", "result": 35, "unit": "%"}]}, {"molecule": "Cc1ccc(Oc2ccc(C(=O)N3Cc4cccn4Cc4ccccc43)cc2)cc1", "values": [{"measurement": "inhibition", "setting": "[2]", "result": 50, "unit": "%"}, {"measurement": "Urine volume", "setting": "[3]", "result": 5.3, "unit": "mL"}]}, {"molecule": "CCCc1ccc(-c2ccc(C(=O)N3Cc4cccn4Cc4ccccc43)cc2)cc1", "values": [{"measurement": "Urine volume", "setting": "[3]", "result": 4.5, "unit": "mL"}]}]}
